From patent US20110269680A1 (PANACEA BIOTEC LIMITED, priority 2008, published 2011) come the findings set out here.

Data set [1] deals with T1, NEP 24.11 (Homo sapiens, UniProt P08473).
T1 construct: purchased Calbiochem
Kind of data set: NEP 24.11 resistant (degradation) assay. In kind it is in vitro ADME. Conditions: for half-life at 20 μM: buffer. The procedure: The aliquots were analyzed for the amount of undegraded peptide concentration at different time intervals using RP-HPLC by peak area integration. T1/2 of each peptide was determined from the graph plotted between peak area of undegraded peptide vs time.

Data set [2] has as its target T2, DPP-IV (Homo sapiens, UniProt P27487).
T2 construct: purchased Sigma-Aldrich
Briefly: DPP-IV resistant assay. The class given is in vitro ADME. How it is done: 20 μM of peptides of the present invention (Sequence IDs—01, 02, 03, 04, 05, 06, 11, 12 and 13) were incubated with 60 mU/2 ml of DPP-IV (Sigma-Aldrich) enzyme at room temperature (22-24° C.) in 20 mM Tris HCl buffer, pH 8.0. The aliquots were analyzed for the amount of undegraded peptide concentration at different time intervals by RP-HPLC. The peak area integration was used to determine the amount of undegraded peptide (U.S. Pat. No. 7,067,488). T1/2 of each peptide was determined from the graph plotted between peak area of undegraded peptide vs. time. The peak area of DPP-IV untreated peptide in above mentioned buffer condition of same concentration was considered as time zero. […]

For data set [3], the target named is T3, GLP-1R (Homo sapiens, UniProt P43220).
T3 construct: expressed in transfected cells; host or cells: CHO/GLP-1R cells
T3 sequence (P43220 24-463, species assumed): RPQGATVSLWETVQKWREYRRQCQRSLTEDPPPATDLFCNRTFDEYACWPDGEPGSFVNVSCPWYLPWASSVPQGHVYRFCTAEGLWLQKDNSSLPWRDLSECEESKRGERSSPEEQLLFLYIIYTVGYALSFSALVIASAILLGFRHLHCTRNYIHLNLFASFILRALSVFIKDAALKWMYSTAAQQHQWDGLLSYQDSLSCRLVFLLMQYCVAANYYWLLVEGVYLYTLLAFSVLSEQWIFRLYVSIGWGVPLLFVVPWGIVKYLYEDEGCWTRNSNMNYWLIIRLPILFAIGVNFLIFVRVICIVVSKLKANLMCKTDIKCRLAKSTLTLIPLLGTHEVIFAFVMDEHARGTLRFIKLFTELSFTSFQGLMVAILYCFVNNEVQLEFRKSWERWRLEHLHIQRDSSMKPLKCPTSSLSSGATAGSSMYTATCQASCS
Briefly: In vitro receptor functional assay (cAMP) in CHO/GLP-1R cells. The note with it: intracellular cAMP, 30 min with 1 mM IBMX. In kind it is cell-based. The source says:
cAMP is a ubiquitous cellular second messenger that is critical component of a signal transduction pathway linking membrane receptors and their ligands to the activation of internal cellular enzymatic activity and gene expression. cAMP is synthesized from ATP by membrane bound adenylate cyclase in a very regulated manner. In its simpler form, binding of a ligand, such as hormone or drug, to its specific G protein coupled receptor can either stimulate or inhibit adenylate cyclase depending on the GPCR being activated. […] Therefore the relative concentration of cAMP serves as a means to monitor the activity of GPCRs at the cell surface.
CHO/GLP-1R Cell Culture—CHO/GLP-1R Cells were maintained in Ham's F-12 medium containing 10% Fetal bovine serum and 1% penicillin-streptomycin antibiotic solution at 37° C. in a 5% CO2 incubator.
Cells were washed twice with PBS (pH-7.2) and incubated with 100 μl Ham's F-12 serum free medium supplemented with 0.1% BSA for 2 hr at 37° C. in 5% CO2 incubator. Cells were then incubated in 100 μl Ham's F-12 serum free medium supplemented with 0.1% BSA with 1 mM IBMX in the presence as well as absence of the peptides as per present invention in different concentration (10 nM, 1 nM, 100 pM & 10 pM). The reaction was stopped 30 min later by washing the intact cells three times with ice cold PBS (pH-7.2). The intracellular cAMP was extracted by incubating the cells in 100 μl 0.1N HCl at room temperature for 20 minutes. Mixture was dissociated by pipetting up and down until the suspension became homogenous, transferred to centrifuge tube and centrifuged at 800 rpm for 10 minutes.
Dissolved 5 pNPP tablets in 25 ml DEA buffer. Wells were emptied and washed five times with wash buffer and added 200 μl pNPP solution to each well, plate was covered and allowed to develop in dark for 90 minutes.

Structures are written as SMILES. Read-outs that look alike come from different tables or passages of the source. Numbered stars: 1 amine (or outer) side, 2 acyl side, 3 side chain; on linkers, the order of the positions; unused ones are H or OH. Square brackets hold non-standard residues; d marks the D form. Peptide text beside a SMILES is read from it. X1 = CO[C@H]1O[C@H](C(=O)[*:2])[C@@H](O)[C@H](O)[C@H]1N[*:1]; 2Furoyl(5-aminomethyl) = O=C(c1ccc(CN[*:1])o1)[*:2]; Aib = CC(C)(N)C(=O)O

T1 sequence (P08473 whole entry): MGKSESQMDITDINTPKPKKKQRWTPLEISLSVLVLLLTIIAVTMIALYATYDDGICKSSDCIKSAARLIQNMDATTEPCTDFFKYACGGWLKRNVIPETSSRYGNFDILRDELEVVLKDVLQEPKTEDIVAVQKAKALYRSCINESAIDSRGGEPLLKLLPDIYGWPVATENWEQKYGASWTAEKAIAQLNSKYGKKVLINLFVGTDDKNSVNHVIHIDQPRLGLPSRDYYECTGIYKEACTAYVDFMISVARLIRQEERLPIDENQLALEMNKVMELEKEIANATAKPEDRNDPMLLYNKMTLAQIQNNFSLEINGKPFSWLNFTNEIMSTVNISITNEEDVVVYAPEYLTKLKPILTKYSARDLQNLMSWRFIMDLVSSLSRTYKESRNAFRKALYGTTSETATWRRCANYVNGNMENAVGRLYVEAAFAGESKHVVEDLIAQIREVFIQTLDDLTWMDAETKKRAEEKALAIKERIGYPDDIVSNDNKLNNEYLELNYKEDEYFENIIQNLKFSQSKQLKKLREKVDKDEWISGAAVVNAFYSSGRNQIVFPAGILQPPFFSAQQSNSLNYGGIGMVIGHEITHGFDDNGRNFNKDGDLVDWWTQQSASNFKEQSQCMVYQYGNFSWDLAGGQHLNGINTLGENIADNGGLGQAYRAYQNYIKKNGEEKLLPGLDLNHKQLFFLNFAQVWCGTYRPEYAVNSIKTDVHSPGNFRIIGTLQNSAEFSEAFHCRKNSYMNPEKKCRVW
T2 sequence (P27487 whole entry, species assumed): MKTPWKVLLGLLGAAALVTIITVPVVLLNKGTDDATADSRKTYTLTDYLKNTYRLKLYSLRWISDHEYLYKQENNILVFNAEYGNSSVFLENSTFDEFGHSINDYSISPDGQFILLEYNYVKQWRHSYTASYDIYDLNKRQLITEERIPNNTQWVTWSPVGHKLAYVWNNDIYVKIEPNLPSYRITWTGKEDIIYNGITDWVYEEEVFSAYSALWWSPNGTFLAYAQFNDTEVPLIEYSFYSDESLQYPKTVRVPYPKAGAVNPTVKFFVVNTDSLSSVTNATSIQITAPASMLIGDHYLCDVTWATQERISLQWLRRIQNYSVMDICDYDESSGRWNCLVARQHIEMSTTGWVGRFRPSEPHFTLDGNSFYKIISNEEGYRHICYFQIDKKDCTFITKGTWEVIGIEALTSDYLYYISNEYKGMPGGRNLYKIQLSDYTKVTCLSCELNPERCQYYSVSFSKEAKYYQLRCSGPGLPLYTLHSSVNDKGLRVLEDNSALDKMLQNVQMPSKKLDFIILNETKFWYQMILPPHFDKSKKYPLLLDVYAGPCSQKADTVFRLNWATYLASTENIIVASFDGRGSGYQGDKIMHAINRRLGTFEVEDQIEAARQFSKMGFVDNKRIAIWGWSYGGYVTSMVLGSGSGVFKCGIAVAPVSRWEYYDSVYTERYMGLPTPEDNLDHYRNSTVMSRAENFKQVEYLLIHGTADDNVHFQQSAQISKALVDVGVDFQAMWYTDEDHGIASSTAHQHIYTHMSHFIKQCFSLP

For the compound `CC[C@H](C)[C@H](NC(=O)[C@H](Cc1ccccc1)NC(=O)[C@H](CCC(=O)O)NC(=O)[C@H](CCCCN)NC(=O)[C@H](C)NC(=O)[C@H](C)NC(=O)[C@H](CCC(N)=O)NC(=O)CNC(=O)[C@H](CCC(=O)O)NC(=O)[C@H](CC(C)C)NC(=O)[C@H](Cc1ccc(O)cc1)NC(=O)[C@H](CO)NC(=O)[C@H](CO)NC(=O)[C@@H](NC(=O)[C@H](CC(=O)O)NC(=O)[C@H](CO)NC(=O)[C@@H](NC(=O)[C@H](Cc1ccccc1)NC(=O)[C@@H](NC(=O)CNC(=O)[C@H](CCC(=O)O)NC(=O)[C@H](C)NC(=O)[C@@H](N)Cc1c[nH]cn1)[C@@H](C)O)[C@@H](C)O)C(C)C)C(=O)N[C@@H](C)C(=O)N[C@@H](Cc1c[nH]c2ccccc12)C(=O)N[C@@H](CC(C)C)C(=O)N[C@H](C(=O)N[C@@H](CCCCN)C(=O)NCC(=O)N[C@@H](CCCNC(=N)N)C(N)=O)C(C)C` [GLP-1(7-36) parent, GLP-1(7-36), reference compound], the metabolised at 54 h, 20 μM in data set [1] (isolated enzyme neprilysin, pH 7.4, NEP 24.11, after 54 hrs, read-out: % Degradation (after 54 hrs)) stood at 98.3%.

Turning to `CC[C@H](C)[C@H](NC(=O)[C@H](Cc1ccccc1)NC(=O)[C@H](CCC(=O)O)NC(=O)[C@H](CCCCN)NC(=O)[C@H](C)NC(=O)[C@H](C)NC(=O)[C@H](CCC(N)=O)NC(=O)CNC(=O)[C@H](CCC(=O)O)NC(=O)[C@H](CC(C)C)NC(=O)[C@H](Cc1ccc(O)cc1)NC(=O)[C@H](CO)NC(=O)[C@H](CO)NC(=O)C(C)(C)NC(=O)[C@H](CC(=O)O)NC(=O)[C@H](CO)NC(=O)[C@@H](NC(=O)[C@H](Cc1ccccc1)NC(=O)[C@@H](NC(=O)CNC(=O)[C@H](CCC(=O)O)NC(=O)c1ccc(CNC(=O)[C@@H](N)Cc2c[nH]cn2)o1)[C@@H](C)O)[C@@H](C)O)C(=O)NC(C)(C)C(=O)N[C@@H](Cc1c[nH]c2ccccc12)C(=O)N[C@@H](CC(C)C)C(=O)N[C@H](C(=O)N[C@@H](CCCCN)C(=O)NCC(=O)N[C@@H](CCCNC(=N)N)C(N)=O)C(C)C` [Seq ID No. 04] (H-H[2Furoyl(5-aminomethyl)]EGTFTSD[Aib]SSYLEGQAAKEFI[Aib]WLVKGR-NH2; N-terminus assumed), the “Percentage degradation in hrs” value in data set [2] came out at 12.87%. The half-life at 20 μM was > 24 h in data set [2] (pH 8) and > 56 h in data set [1] (pH 7.4). Also, the metabolised at 54 h, 20 μM in data set [1] (isolated enzyme neprilysin, pH 7.4) amounted to 26%.

In the case of `CC[C@H](C)[C@H](NC(=O)[C@H](Cc1ccccc1)NC(=O)[C@H](CCC(=O)O)NC(=O)[C@H](CCCCN)NC(=O)[C@H](C)NC(=O)[C@H](C)NC(=O)[C@H](CCC(N)=O)NC(=O)CNC(=O)[C@H](CCC(=O)O)NC(=O)[C@H](CC(C)C)NC(=O)[C@H](Cc1ccc(O)cc1)NC(=O)[C@H](CO)NC(=O)[C@H](CO)NC(=O)[C@@H](NC(=O)[C@H](CC(=O)O)NC(=O)[C@H](CO)NC(=O)[C@@H](NC(=O)[C@H](Cc1ccccc1)NC(=O)[C@@H](NC(=O)CNC(=O)[C@H]1O[C@H](OC)[C@H](NC(=O)[C@@H](N)Cc2c[nH]cn2)[C@@H](O)[C@@H]1O)[C@@H](C)O)[C@@H](C)O)C(C)C)C(=O)N[C@@H](C)C(=O)N[C@@H](Cc1c[nH]c2ccccc12)C(=O)N[C@@H](CC(C)C)C(=O)N[C@H](C(=O)N[C@@H](CCCCN)C(=O)NCC(=O)N[C@@H](CCCNC(=N)N)C(N)=O)C(C)C` [Seq ID No. 07], the EC50 (in general, the concentration at which the effect is half-maximal) in data set [3] was found to be 0.056 nM. That is a picomolar value.

Consider `CC[C@H](C)[C@H](NC(=O)[C@H](Cc1ccccc1)NC(=O)[C@H](CCC(=O)O)NC(=O)[C@H](CCCCN)NC(=O)[C@H](C)NC(=O)[C@H](C)NC(=O)[C@H](CCC(N)=O)NC(=O)CNC(=O)[C@H](CCC(=O)O)NC(=O)[C@H](CC(C)C)NC(=O)[C@H](Cc1ccc(O)cc1)NC(=O)[C@H](CO)NC(=O)[C@H](CO)NC(=O)[C@@H](NC(=O)[C@H](CC(=O)O)NC(=O)[C@H](CO)NC(=O)[C@@H](NC(=O)[C@H](Cc1ccccc1)NC(=O)[C@@H](NC(=O)CNC(=O)c1ccc(CNC(=O)[C@@H](N)Cc2c[nH]cn2)o1)[C@@H](C)O)[C@@H](C)O)C(C)C)C(=O)N[C@@H](C)C(=O)N[C@@H](Cc1c[nH]c2ccccc12)C(=O)N[C@@H](CC(C)C)C(=O)N[C@H](C(=O)N[C@@H](CCCCN)C(=O)NCC(=O)N[C@@H](CCCNC(=N)N)C(N)=O)C(C)C` [Seq ID No. 08], for which the midpoint of the response in data set [3], the EC50, lay at 0.601 nM.

In data set [3], `CC[C@H](C)[C@H](NC(=O)[C@H](Cc1ccccc1)NC(=O)[C@H](CCC(=O)O)NC(=O)[C@H](CCCCN)NC(=O)[C@H](C)NC(=O)[C@H](C)NC(=O)[C@H](CCC(N)=O)NC(=O)CNC(=O)[C@H](CCC(=O)O)NC(=O)[C@H](CC(C)C)NC(=O)[C@H](Cc1ccc(O)cc1)NC(=O)[C@H](CO)NC(=O)[C@H](CO)NC(=O)C(C)(C)NC(=O)[C@H](CC(=O)O)NC(=O)[C@H](CO)NC(=O)[C@@H](NC(=O)[C@H](Cc1ccccc1)NC(=O)[C@@H](NC(=O)CNC(=O)[C@H](CCC(=O)O)NC(=O)c1ccc(CNC(=O)[C@@H](N)Cc2c[nH]cn2)o1)[C@@H](C)O)[C@@H](C)O)C(=O)NC(C)(C)C(=O)N[C@@H](Cc1c[nH]c2ccccc12)C(=O)N[C@@H](CC(C)C)C(=O)N[C@H](C(=O)N[C@@H](CCCCN)C(=O)NCC(=O)N[C@@H](CCCNC(=N)N)C(=O)NCC(N)=O)C(C)C` [Seq ID No. 09] (H-H[2Furoyl(5-aminomethyl)]EGTFTSD[Aib]SSYLEGQAAKEFI[Aib]WLVKGRG-NH2) yielded an EC50 of 1 nM.

With `CC[C@H](C)[C@H](NC(=O)[C@H](Cc1ccccc1)NC(=O)[C@H](CCC(=O)O)NC(=O)[C@H](CCCCN)NC(=O)[C@H](C)NC(=O)[C@H](C)NC(=O)[C@H](CCC(N)=O)NC(=O)CNC(=O)[C@H](CCC(=O)O)NC(=O)[C@H](CC(C)C)NC(=O)[C@H](Cc1ccc(O)cc1)NC(=O)[C@H](CO)NC(=O)[C@H](CO)NC(=O)[C@@H](NC(=O)[C@H](CC(=O)O)NC(=O)[C@H](CO)NC(=O)[C@@H](NC(=O)[C@H](Cc1ccccc1)NC(=O)[C@@H](NC(=O)CNC(=O)[C@H](CCC(=O)O)NC(=O)c1ccc(CNC(=O)[C@@H](N)Cc2c[nH]cn2)o1)[C@@H](C)O)[C@@H](C)O)C(C)C)C(=O)N[C@@H](C)C(=O)N[C@@H](Cc1c[nH]c2ccccc12)C(=O)N[C@@H](CC(C)C)C(=O)N[C@H](C(=O)N[C@@H](CCCCN)C(=O)NC(C)(C)C(=O)N[C@@H](CCCNC(=N)N)C(N)=O)C(C)C` [Seq ID No. 11], the half-life at 20 μM in data set [2] (20 μM peptide, 60 mU/2 ml DPP-IV, room temperature (22-24° C.), 20 mM Tris HCl pH 8.0, RP-HPLC, read-out: T1/2 in Hrs) is > 24 h. In data set [2] (DPP-IV, in 24 hrs), the “Percentage degradation in hrs” value amounted to 20%. Moreover, in data set [2] (versus GLP-1(7-37) parent and GLP-1(7-36) parent), the “half life against DPP-IV compared with parent GLP-1 molecules” value is listed as “better half lives than the parent GLP-1 molecules”.

On to `CC[C@H](C)[C@H](NC(=O)[C@H](Cc1ccccc1)NC(=O)[C@H](CC(C)C)NC(=O)[C@H](CCCCN)NC(=O)[C@H](C)NC(=O)[C@H](C)NC(=O)[C@H](CCC(N)=O)NC(=O)CNC(=O)[C@H](CCC(=O)O)NC(=O)[C@H](CCC(N)=O)NC(=O)[C@H](Cc1ccc(O)cc1)NC(=O)[C@H](CO)NC(=O)[C@H](CC(C)C)NC(=O)[C@@H](NC(=O)[C@H](CC(=O)O)NC(=O)[C@H](CO)NC(=O)[C@@H](NC(=O)[C@H](Cc1ccccc1)NC(=O)[C@@H](NC(=O)CNC(=O)[C@H]1O[C@H](OC)[C@H](NC(=O)[C@@H](N)Cc2c[nH]cn2)[C@@H](O)[C@@H]1O)[C@@H](C)O)[C@@H](C)O)C(C)C)C(=O)N[C@@H](CCC(=O)O)C(=O)N[C@@H](Cc1c[nH]c2ccccc12)C(=O)N[C@@H](CC(C)C)C(=O)N[C@H](C(=O)N[C@@H](CCCCN)C(=O)NCC(=O)N[C@@H](CCCNC(=N)N)C(N)=O)C(C)C` [Seq ID No. 12] (H-H[X1]GTFTSDVLSYQEGQAAKLFIEWLVKGR-NH2; N-terminus assumed), for which the “Percentage degradation in hrs” value in data set [2] was 24.93%. Also, the half-life at 20 μM is > 24 h in data set [2] (pH 8) and 27.5 h in data set [1] (20 μM peptide, 1 mg/ml NEP 24.11, 37° C., 50 mM Hepes, 50 mM NaCl, pH 7.4, RP-HPLC, read-out: T1/2 (converted)). Besides, the metabolised at 54 h, 20 μM in data set [1] (isolated NEP 24.11 enzyme (Calbiochem), pH 7.4, NEP 24.11, after 54 hrs, read-out: % Degradation (after 54 hrs)) was found to be 93.5%.
